Target: Phospholipase D2 (Homo sapiens) + Phospholipase D2 (Homo sapiens) (UniProt O14939+O14939)
Assay: cellular phospholipase D2 inhibitors, IC50 – cell-based, Lib32, assay 2B, dose response (AID 624004)
Settings: cellular PLD2 activity assay

Phospholipase D2 (Homo sapiens) + Phospholipase D2 (Homo sapiens), sequence (O14939 whole entry, looked up): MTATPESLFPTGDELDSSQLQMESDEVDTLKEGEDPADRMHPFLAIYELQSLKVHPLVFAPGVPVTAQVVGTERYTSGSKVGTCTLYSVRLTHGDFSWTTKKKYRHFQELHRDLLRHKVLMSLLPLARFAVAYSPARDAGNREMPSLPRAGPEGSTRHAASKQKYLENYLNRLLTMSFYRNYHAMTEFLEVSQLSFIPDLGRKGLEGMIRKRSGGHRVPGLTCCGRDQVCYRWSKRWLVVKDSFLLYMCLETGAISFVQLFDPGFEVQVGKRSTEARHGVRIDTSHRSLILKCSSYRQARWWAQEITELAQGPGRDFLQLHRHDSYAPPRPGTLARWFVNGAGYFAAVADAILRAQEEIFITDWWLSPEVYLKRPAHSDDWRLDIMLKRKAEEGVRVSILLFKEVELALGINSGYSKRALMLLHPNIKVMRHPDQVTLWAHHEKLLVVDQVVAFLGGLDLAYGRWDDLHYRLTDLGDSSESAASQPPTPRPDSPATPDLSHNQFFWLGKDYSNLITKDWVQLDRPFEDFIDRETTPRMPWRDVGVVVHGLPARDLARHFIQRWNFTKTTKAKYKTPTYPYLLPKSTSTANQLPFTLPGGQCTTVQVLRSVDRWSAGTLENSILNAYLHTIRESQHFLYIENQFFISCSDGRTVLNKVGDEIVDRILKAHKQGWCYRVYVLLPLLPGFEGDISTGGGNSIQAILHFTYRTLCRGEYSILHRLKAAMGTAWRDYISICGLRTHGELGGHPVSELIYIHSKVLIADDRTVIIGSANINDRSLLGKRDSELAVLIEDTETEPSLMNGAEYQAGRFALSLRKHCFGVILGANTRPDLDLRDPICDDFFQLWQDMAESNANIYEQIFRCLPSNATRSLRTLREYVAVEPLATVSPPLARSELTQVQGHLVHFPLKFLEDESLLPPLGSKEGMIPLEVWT
Phospholipase D2 (Homo sapiens) + Phospholipase D2 (Homo sapiens), sequence (O14939 whole entry, looked up): as above

| SMILES | IC50 |
| --- | --- |
| C[C@@H](CN1CCC2(CC1)C(=O)NCN2c1cccc(F)c1)NC(=O)c1ccc(F)cc1F | 947 nM |
| C[C@@H](CN1CCC2(CC1)C(=O)NCN2c1cccc(F)c1)NC(=O)c1ccc(F)cc1 | 34 nM |
| C[C@@H](CN1CCC2(CC1)C(=O)NCN2c1cccc(F)c1)NC(=O)c1cccc([N+](=O)[O-])c1 | 430 nM |
| C[C@@H](CN1CCC2(CC1)C(=O)NCN2c1cccc(F)c1)NC(=O)c1cccc(F)c1 | 1200 nM |
| COc1cc(C(=O)NCCN2CCC3(CC2)C(=O)NCN3c2cccc(F)c2)cc(OC)c1OC | 1430 nM |
| C[C@@H](CN1CCC2(CC1)C(=O)NCN2c1cccc(F)c1)NC(=O)c1ccc(F)c(F)c1 | 120 nM |
| O=C(NCCN1CCC2(CC1)C(=O)NCN2c1cccc(F)c1)c1ccc(F)cc1 | 355 nM |
| O=C(NCCN1CCC2(CC1)C(=O)NCN2c1cccc(F)c1)c1ccc(Br)cc1 | 200 nM |
| COc1cc(C(=O)N[C@@H](C)CN2CCC3(CC2)C(=O)NCN3c2cccc(F)c2)cc(OC)c1OC | 72 nM |
| C[C@@H](CN1CCC2(CC1)C(=O)NCN2c1cccc(F)c1)NC(=O)c1ccc(Br)cc1 | 84 nM |
